Experiment [1] deals with T1, SCD-1 (Homo sapiens, UniProt O00767).
T1 sequence (O00767 1-359): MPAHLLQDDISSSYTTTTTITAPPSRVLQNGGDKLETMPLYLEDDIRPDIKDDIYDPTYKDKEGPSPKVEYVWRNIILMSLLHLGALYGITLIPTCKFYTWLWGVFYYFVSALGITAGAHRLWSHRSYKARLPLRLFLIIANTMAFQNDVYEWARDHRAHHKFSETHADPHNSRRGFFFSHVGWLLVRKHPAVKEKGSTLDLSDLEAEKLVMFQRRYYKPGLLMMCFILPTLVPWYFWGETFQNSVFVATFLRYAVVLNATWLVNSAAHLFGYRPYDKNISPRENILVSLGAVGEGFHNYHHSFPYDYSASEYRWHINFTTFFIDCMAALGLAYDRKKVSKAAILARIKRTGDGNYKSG
Nature of the experiment: Whole cell based SCD-1 assay in human liver cell line HepG2 (tritiated stearoyl CoA, labelled water release). Set-up: includes cells which express the SCD-1 gene product endogenously; endogenous in cells; host or cells: A431 (ATCC CRL 1555), not induced. To be noted: EC35. Here is the method:
(§1) An assay was developed using whole cells to screen for agents that modulate SCD-1 activity. Three cell lines namely human liver cell line (hepatocellular carcinoma HepG2 ATCC HB 8065), human skin cell line (epidermal carcinoma A431 ATCC CRL 1555) and human corneal epithelial progenitor (HCEP) cells (CELLNTEC advanced cell systems) were used. HepG2 cells were seeded in a 24 well plate in complete MEM medium (Hyclone). A431 cells were seeded in a 12 well plate in complete DMEM medium (Sigma). HCEP cells were seeded in a 96 well plate in defined corneal epithelial medium CnT 20 (CELLNTEC advanced cell systems). HepG2 cells were induced with LXR agonist T0901317 (Cayman chemicals) in medium containing high glucose and fatty acid free BSA for 3 days with media change every day (Wang et al, (2004) Journal of Lipid Research, 45, 972-980). A431 cells were not induced. (3). The cells were preincubated in plain medium with the known SCD-1 modulators namely CLA (conjugated linoleic acid) (Sigma) and TSA (9 thiastearic acid) (Cayman chemicals) for 15-30 minutes at 37 deg C. and further challenged with 0.25 to 7.5 μCi tritiated Stearoyl CoA (American Radiolabelled chemicals). The cells were incubated for last 6 hours in 5% CO2 incubator at 37 deg C. or in specific embodiments for 4 hours to 30 hours. At the end of the incubation, the incubation medium was collected into tubes. Dowex AG 1-X8 resin (Biorad laboratories) pre-equilibrated with distilled ethanol:water was added to the tubes to separate the unconsumed substrate from the labelled water. The tubes were then vortexed for 5 minutes and centrifuged at 14000 rpm for 20 minutes at room temperature. The supernatant from the tubes was mixed with the scintillation fluid and radioactivity counted in the Packard topcount scintillation counter (Perkin Elmer). Counts obtained were normalised per million cells. Inhibition of enzyme activity was calculated as the percent of maximum reaction control that contained no test compound.
(§2) The whole cell based assay was adapted to screen for agents that differentially modulate SCD-1 activity present in different tissues. Three cell lines namely human liver cell line (hepatocellular carcinoma HepG2), human skin cell line (epidermal carcinoma A431) and human corneal epithelial progenitor (HCEP) cells were used. HepG2 cells were seeded in a 24 well plate in complete MEM medium. A431 cells were seeded in a 12 well plate in complete DMEM medium. HCEP cells were seeded in a 96 well plate in defined corneal epithelial medium CnT 20. HepG2 cells were induced with LXR agonist T0901317 in medium containing 4.5 gm/litre glucose and 0.1% fatty acid free BSA for 3 days with media change every day (Wang et al, (2004) Journal of Lipid Research, 45, 972-980). A431 cells and HCEP cells were not induced. (3). The cells were preincubated in plain medium 0.1 nM to 10 μM concentrations potential SCD-1 modulator compounds for 15-30 minutes at 37 deg C. and further challenged with 0.25 to 7.5 μCi tritiated Stearoyl CoA. The cells were incubated for last 6 hours in 5% CO2 incubator at 37 deg C. or in specific embodiments for 4 hours to 30 hours. At the end of the incubation, the incubation medium was collected into tubes. Dowex AG 1-X8 resin pre-equilibrated with distilled ethanol:water was added to the tubes to separate the unconsumed substrate from the labelled water. The tubes were then vortexed for 5 minutes and centrifuged at 14000 rpm for 20 minutes at room temperature. The supernatant from the tubes was mixed with the scintillation fluid and radioactivity counted in the Packard topcount scintillation counter. Counts obtained were normalised per million cells. Inhibition of enzyme activity was calculated as the percent of maximum reaction control that contained no test compound. For active compounds, EC35 was calculated from dose response curve by non linear regression analysis using GraphPadPRISM software. The ratio of EC35 for skin cells to EC35 for liver cells was calculated. […]

Experiment [2] addresses T1, SCD-1. The description is as above. Set-up: includes cells which express the SCD-1 gene product endogenously; endogenous in cells; host or cells: A431 (ATCC CRL 1555), not induced. To be noted: for Fold Liver:skin: ratio of EC35 liver cells (HepG2) to EC35 skin cells (A431).
Experiment [3] concerns the target T1, SCD-1. Nature of the experiment: Whole cell based SCD-1 assay in human skin cell line A431 (tritiated stearoyl CoA, labelled water release). Also on record: includes cells which express the SCD-1 gene product endogenously; endogenous in cells; host or cells: A431 (ATCC CRL 1555), not induced. To be noted: for IC35: EC35; for Fold Skin:liver: ratio of EC35 skin cells (A431) to EC35 liver cells (HepG2). Here is the method: as §1, §2

In experiment [4] the target is T1, SCD-1. Nature of the experiment: Whole cell based SCD-1 assay in human corneal epithelial progenitor (HCEP) cells. Also on record: includes cells which express the SCD-1 gene product endogenously; endogenous in cells. Conditions: for IC35: HCEP human corneal epithelial cells, EC35, read-out: hCornea EC35; for Fold Liver:Cornea: ratio of EC35 liver cells (HepG2) to EC35 corneal cells (HCEP). The method, then:
as §1
The whole cell based assay was adapted to screen for agents that differentially modulate SCD-1 activity present in different tissues. Three cell lines namely human liver cell line (hepatocellular carcinoma HepG2), human skin cell line (epidermal carcinoma A431) and human corneal epithelial progenitor (HCEP) cells were used. HepG2 cells were seeded in a 24 well plate in complete MEM medium. A431 cells were seeded in a 12 well plate in complete DMEM medium. HCEP cells were seeded in a 96 well plate in defined corneal epithelial medium CnT 20. HepG2 cells were induced with LXR agonist T0901317 in medium containing 4.5 gm/litre glucose and 0.1% fatty acid free BSA for 3 days with media change every day (Wang et al, (2004) Journal of Lipid Research, 45, 972-980). A431 cells and HCEP cells were not induced. (3). […] The cells were incubated for last 6 hours in 5% CO2 incubator at 37 deg C. or in specific embodiments for 4 hours to 30 hours. At the end of the incubation, the incubation medium was collected into tubes. […] The supernatant from the tubes was mixed with the scintillation fluid and radioactivity counted in the Packard topcount scintillation counter. […] Inhibition of enzyme activity was calculated as the percent of maximum reaction control that contained no test compound. For active compounds, EC35 was calculated from dose response curve by non linear regression analysis using GraphPadPRISM software. The ratio of EC35 for skin cells to EC35 for liver cells was calculated.

Experiment [5] addresses T1, SCD-1. Nature of the experiment: Whole cell based SCD-1 assay in human skin cell line A431 (tritiated stearoyl CoA, labelled water release). Set-up: includes cells which express the SCD-1 gene product endogenously; endogenous in cells; host or cells: A431 (ATCC CRL 1555), not induced.
[6] abbreviates: HepG2 human liver cells, read-out: hLiver EC35.
Where [7] appears, read: A-431, A431 human skin cells, read-out: hSkin EC35.
Setting [8] is: HepG2 liver cells, LXR agonist induced, read-out: Inhibition of SCD-1 activity in whole cell based assay (EC35), HepG2.

As a reminder, the inhibition is how much of the control response was suppressed.

Consider `Cc1nc(-c2ccc(-c3ccc(O)cc3)nc2)sc1C(=O)NCCCc1ccccc1` [compound 1], for which the IC35 came out at 266 nM in experiment [1] (setting [6]) and 180 nM in experiment [3] (setting [7]). The “Fold Liver:skin” value in experiment [2] is on record as 1.47.

As to `Cc1nc(C#Cc2ccc(O)cc2)sc1C(=O)NCc1ccccc1` [compound 1], in experiment [4], the IC35 was determined as 218 nM and the “Fold Liver:Cornea” value turned out to be 1.66. Further, the IC35 in experiment [1] (setting [6]) was 363 nM.

In the case of `Cc1nc(-c2ccc(-c3ccc(O)cc3)nc2)sc1C(=O)NCCc1ccccc1` [compound 2], the IC35 in experiment [1] (setting [6]) was 438 nM; in experiment [3] (setting [7]), 168 nM. For the same molecule, the “Fold Liver:skin” value in experiment [2] is on record as 2.60.

Consider `Cc1nc(-n2cnn(Cc3ccc(F)cc3)c2=O)sc1C(=O)NCc1ccccc1` [compound 2], for which the IC35 in experiment [1] (setting [6]) stood at 39.5 nM; in experiment [3] (setting [7]), 37.8 nM. Moreover, the “Fold Skin:liver” value in experiment [3] is recorded as 0.95.

As to “conjugated linoleic acid [CLA, reference compound]”, in experiment [4] (HCEP corneal cells, at 300 μM), the “Percentage inhibition of SCD-1, HCEP” value is ~80% at 300 μM. Besides, the “Percentage inhibition of SCD-1, A431” value in experiment [5] (A431 cells, at 300 μM) is “(~91% at 300 μM)”. Also, the IC35 in experiment [1] (setting [8]) was 22660 nM; in experiment [3] (A431 skin cells, not induced, read-out: Inhibition of SCD-1 activity in whole cell based assay (EC35), A431), 16350 nM. Further, the “Percentage inhibition of SCD-1, HepG2” value in experiment [2] (HepG2 cells, at 300 μM) is recorded as “(~80.01% at 300 μM)”.

On to `Cc1nc(C#Cc2ccc(O)cc2)sc1C(=O)NCc1ccc(Cl)cc1` [compound 3], for which the IC35 in experiment [1] (setting [6]) was 698 nM; in experiment [3] (setting [7]), > 10000 nM. In addition, the “Fold Skin:liver” value in experiment [3] is listed as >15.

In the case of `Cc1nc(C#Cc2ccc(O)cc2)sc1C(=O)NCc1cccnc1` [compound 1], the IC35 came out at 2300 nM in experiment [1] (setting [6]) and 2140 nM in experiment [3] (setting [7]). In addition, in experiment [3], the “Fold Skin:liver” value was 0.93.

In the case of `CCCCCCCCCSCCCCCCCC(=O)O` [TSA, 9 thiastearic acid, reference compound], the inhibition at 100 µM in experiment [5] (A-431, A431 skin cells, at 100 μM, read-out: Percentage inhibition of SCD-1, A431) is 52%; in experiment [2] (HepG2, HepG2 liver cells, at 100 μM, read-out: Percentage inhibition of SCD-1, HepG2) it was 58%. Besides, the IC35 in experiment [1] (setting [8]) is ~100000 nM; in experiment [3] (A-431, A431 skin cells, not induced, read-out: Inhibition of SCD-1 activity in whole cell based assay (EC35), A431), ~100000 nM.

For the molecule `Cc1nc(C#Cc2ccc(O)cc2)sc1C(=O)NCCc1ccc(F)cc1` [compound 2], the IC35 in experiment [4] was determined as 53.2 nM; in experiment [1] (setting [6]), 480 nM. Moreover, in experiment [4], the “Fold Liver:Cornea” value is recorded as 9.02.

As to `Cc1nc(C#Cc2ccc(O)cc2)sc1C(=O)NCCc1ccccc1` [compound 2], the IC35 came out at 490 nM in experiment [1] (setting [6]) and 982 nM in experiment [3] (setting [7]). For the same molecule, in experiment [3], the “Fold Skin:liver” value was 2.00.

On to `Cc1nc(-n2cnn(Cc3cccc(F)c3F)c2=O)sc1C(=O)NCc1ccccc1` [compound 3], for which the IC35 turned out to be 29.4 nM in experiment [1] (setting [6]) and 33.8 nM in experiment [3] (setting [7]). Also, in experiment [3], the “Fold Skin:liver” value is 1.15.

Consider `Cc1nc(C#Cc2cccc(O)c2)sc1C(=O)NCc1ccccc1` [compound 1], for which the IC35 in experiment [1] (setting [6]) stood at 3440 nM; in experiment [3] (setting [7]), 6900 nM. Also, the “Fold Skin:liver” value in experiment [3] is 2.00.

These data come from US20110184027A1, “TISSUE SELECTIVE STEAROYL-COA DESATURASE 1 INHIBITORS AND CELL BASED SCREENING ASSAY FOR THEIR IDENTIFICATION” (GLENMARK PHARMACEUTICALS S.A., priority 2008, published 2011).
